Source: patent US7893068B2, “Physiologically active substances” (Mercian Corporation, priority 2002, dated 2011)
Like-named read-outs stand apart in the source and are kept apart here.

Tests used:
P388 mouse leukemia cell [1] = settings: cited from earlier work
[2] = Stability in an aqueous solution (HPLC residual ratio); settings: for Peak area (mAU × sec) after 24 hours / The residual ratios (%): Britton-Robinson's buffer pH 7, 25° C., 24 hours; for Peak area (mAU × sec) initial: Britton-Robinson's buffer pH 7, before incubation
Protocol: The compounds of the formula (I) were dissolved in DMSO in concentrations of 10 to 20 mM, and these were diluted about 500 folds with Britton-Robinson's buffer solution of pH 7. Each of the solutions as sample solutions was incubated at 25° C. for 24 hours.
The sample solutions were analyzed by high performance liquid chromatography before and after incubation, and the residual ratios of the tested substances in the sample solutions after incubation were determined from the peak areas of the obtained chromatograms.

[3] = system: HL-60 human leukemia cell; settings: HL-60, RPM-1640 medium; cited from earlier work
P388 mouse leukemia cell [4] = settings: P388, RPM-1640 medium; cited from earlier work
[5] = system: L-1210 mouse leukemia cell; settings: L-1210, RPM-1640 medium; cited from earlier work
[6] = Body weight loss (acute toxicity) in the WiDr tumor model; assay type: in vivo, nude mice; settings: intravenous 5 consecutive days, body weight relative to Day 1
Description: (§1) In order to study solid tumor growth inhibitory activities of the compounds of the formula (I) in vivo, WiDr human colon cancer cells were implanted subcutaneously into the flanks of nude mice. […]. The animals were grouped so that the average of the volumes of the respective groups became uniform, when it reached about 100 mm^3. Control group was made up of 10 mice and 11107D-administering groups were made up of 5 mice. The derivatives were administered for the administering groups for 5 consecutive days by intravenous injection so as to be any of 0.625 mg, 1.25 mg, 2.5 mg, 5 mg and 10 mg/kg/day, and a vehicle was administered to the control group. The tumor volumes on Day 15 were measured, and relative tumor volume ratios (T/C %) were determined setting the tumor volume of the control group as 100%. The body weights on Day 1, Day 5, Day 8, Day 12 and Day 15 (or 16) were measured, and relative body weight variations were determined setting the body weight on Day 1 as 100%. The relative body weight ratios on the day where the body weight reached the minimum were defined as the minimum relative weight ratios and are shown in Table 3.

[7] = system: WiDr human colon cancer cells; assay: Growth inhibitory activities on WiDr human colon cancer cells (MTT); assay type: cell-based; settings: 72 h, three days incubation
Protocol: WiDr human colon cancer cells cultured in DULBECCO-modified eagle medium (DMEM; manufactured by SIGMA Co., Ltd.) containing 10% fetal calf serum, penicillin (100 unit/mL) and streptomycin (100 μg/mL) were dispensed in 96-well plates by 2×10^3 cells/well. After culturing overnight in a CO2 incubator, 20 μL of the above-mentioned incubation solution containing the test compound diluted with 3-fold succession was added, followed by incubation. After three days, 50 μL of 3.3 mg/mL MTT solution was added, followed by culturing for further one hour. Then, formazan formed by the reduction by the action of living cells was extracted with 100 μL of DMSO, the absorbance (A540/A660) was determined and was set as the index of the number of living cells.
The concentrations of the compounds of the formula (I) at which the growth of WiDr human colon cancer cells are inhibited 50% were determined.

[8] = system: WiDr human colon cancer cells; assay: Solid tumor growth inhibitory activities, WiDr human colon tumor model in nude mice; assay type: in vivo; settings: Mus musculus, 360 h
Description: as §1

VEGF promoter = assay: VEGF transcription-suppressing activity (VEGF promoter-PLAP reporter, U251/1-8 cells, hypoxia); assay type: cell-based; settings: Homo sapiens, read-out: VEGF transcription-suppressing activities (IC50: nM)
Description: In order to prepare reporter system reflecting transcription from VEGF promoter, VEGF promoter sequence was cloned, and inserted in secretory alkaline phosphatase (PLAP) vector to construct reporter vector.
In order to obtain the promoter region of human VEGF, VEGF genomic DNA was cloned from phage library. PCR primers having the sequences described in Sequence Numbers 1 and 2 were designed based on VEGF cDNA (GenBank accession number: X62568) and a fragment having about 340 bp was obtained by carrying out PCR. Human genomic phage library (Human genomic library, Clontech Co.) was screened using this as a probe to obtain VEGF genomic DNA. The DNA was digested by EcoRI, and the resultant fragments were inserted in the EcoRI site of pUC18. Finally, pUC18-VEGFA containing about 5.4 kb of VEGF 5′ flanking region was obtained. The pUC18-VEGFA was digested by KpnI/NheI, VEGF promoter region of about 2.3 kb obtained was inserted in the multi cloning site KpnI/NheI of secretory alkaline phosphatase (PLAP) vector (Goto et al, Mol. Pharmacol., 49, 860-873, 1996), and thus, VEGF-PLAP vector was constructed.
The above-mentioned VEGF-PLAP vector was transfected in the U251 cell cultured in the DULBECCO-modified eagle medium (DMEM; manufactured by SIGMA Co., Ltd.) containing 10% fetal calf serum, and the cells were cultured in the presence of 1 mg/mL G418 (Merck Co.) to establish G418 resistant stable clone (U251/1-8 cell).
It was confirmed that U251/1-8 cell secreted PLAP under hypoxic condition (2% O2 incubator) in the same manner as in the report (Cell. Mol. Biol. Res. 40, 35-39, 1994) and was a reporter system reflecting the transcription from VEGF promoter. The screening of the compound suppressing VEGF production which was induced by hypoxic stimulation was carried out below using the clone.
In order to remove the influence of alkaline phosphates in serum, U251/1-8 cells were rinsed twice with the adequate amount of PBS (Phosphate buffered saline), diluted in the DMEM medium containing 10% of serum in which alkaline phosphates was inactivated by the treatment of 65° C. for 20 min., and dispensed in 96-well plates by 4×10^4 cells/180 μL.
After culturing at 37° C. overnight in a CO2 incubator (5% CO2), 20 μL of the above-mentioned incubation solution containing the test compound diluted with 3-fold succession was added, and then they were incubated in a hypoxic (2% […]) incubator for 18 hours. With respect to the PLAP activity in the culture supernatants, 10 μL of the supernatants was added to 50 μL of 0.28 M Na2CO3—NaHCO3 buffer solution (pH 10.0, 8.0 mM MgSO4), and finally 50 μL of alkaline phosphatase substrate (LUMISTEIN, Genomescience Co.) was added. After reacting for one hour, the alkaline phosphatase activity of the PLAP was measured by detecting the chemical luminescence by a micro plate reader (Perkin-Elmer Co.). The PLAP activity under normoxia was set as 0%, the PLAP activity of cell which was treated under hypoxia was set as 100%, and the concentration suppressing the PLAP activity by 50% was set as the IC50 value of PLAP. The IC50 values of 11107D derivatives shown in Examples were measured, and the IC50 values of representative 11107D derivatives are shown in Table 1.

[9] = Physico-chemical properties: solubility; assay type: physicochemical
Protocol: The physico-chemical properties of 11107D are shown below. The structure of 11107D was determined as shown below.

Row | SMILES | antitumor activities in an in vivo experiment (P388 mouse leukemia cell [1]) | Peak area (mAU × sec) after 24 hours [2] [mAU × sec] | The residual ratios (%) [2] [%] | Peak area (mAU × sec) initial [2] [mAU × sec] | Stability in an aqueous solution [2] | in vitro cell growth inhibitory activities [3] | in vitro cell growth inhibitory activities (P388 mouse leukemia cell [4]) | in vitro cell growth inhibitory activities [5] | the minimum relative weight ratios ([6]; Dose 5.0 mg/kg) | IC50 [7] [nM] | response vs control in vivo at 5 mg/kg ([8]; Dose 5.0 mg/kg, intravenous injection 5 consecutive days, tumor volume Day 15, read-out: Growth inhibitory activities in the WiDr human solid tumor model (T/C %)) [%] | IC50 (VEGF promoter; U-251, U251/1-8 cells, hypoxic incubator 18 hours, PLAP activity) [nM] | the minimum relative weight ratios ([6]; Dose 0.625 mg/kg) | response vs control in vivo at 0.625 mg/kg ([8]; iv, read-out: Growth inhibitory activities in the WiDr human solid tumor model (T/C %)) [%] | IC50 (VEGF promoter; U-251, 18 h) [nM] | Solubility in organic solvents ([9]; dimethyl sulfoxide, pyridine, methanol and acetone) | Solubility in water ([9]; water)
1 | CCC(OC)C(C)C1OC1C(O)C(C)/C=C/C=C(\C)C1OC(=O)CC(O)CCC(C)(O)C(OC(C)=O)/C=C/C1C (stereo not shown) [FD895, reference compound] | did not show antitumor activities | 993 | 83 | 1197 | unstable in an aqueous solution | has in vitro cell growth inhibitory activities | has in vitro cell growth inhibitory activities | has in vitro cell growth inhibitory activities |  |  |  |  |  |  |  |  | 
2 | CCC(O)C(C)C1OC1CC(C)(O)/C=C/C=C(\C)C1OC(=O)CC(O)CCC(C)(O)C(OC(=O)N2CCN(C3CCCCCC3)CC2)/C=C/C1C (stereo not shown) [Compound 45, (8E,12E,14E)-7-((4-Cycloheptylpiperazin-1-yl)carbonyl)oxy-3,6,16,21-tetrahydroxy-6,10,12,16,20-pentamethyl-18,19-epoxytricosa-8,12,14-trien-11-olide] |  | 5024 | 95.0 | 5291 |  |  |  |  | 0.90 | 0.7 | 20 | 1.9 |  |  |  |  | 
3 | CCC(O)C(C)C1OC1CC(C)(O)/C=C/C=C(\C)C1OC(=O)CC(O)CCC(C)(OC)C(OC(=O)N2CCC(N3CCCCC3)CC2)/C=C/C1C (stereo not shown) [Compound 109, (8E,12E,14E)-3,16,21-Trihydroxy-6-methoxy-6,10,12,16,20-pentamethyl-7-((4-(piperidin-1-yl)piperidin-1-yl)carbonyl)oxy-18,19-epoxytricosa-8,12,14-trien-11-olide] |  | 2111 | 94.9 | 2224 |  |  |  |  |  | 1.5 |  |  | 0.89 | 36 | 3.3 |  | 
4 | CCC(O)C(C)C1OC1CC(C)(O)/C=C/C=C(\C)C1OC(=O)CC(O)CCC(C)(O)C(OC(C)=O)/C=C/C1C (stereo not shown) [Compound 11107D, (8E,12E,14E)-7-acetoxy-3,6,16,21-tetrahydroxy-6,10,12,16,20-pentamethyl-18,19-epoxytricosa-8,12,14-trien-11-olide] |  | 3817 | 95.6 | 3994 | stable even in an aqueous solution |  |  |  |  |  |  |  |  |  |  | soluble | slightly soluble
